Patent publication US11649510B2, “Screening method for materials that suppress characteristic body odor of elderly people” (Takasago International Corporation, priority 2017, dated 2023)
Blank lines part the entries; values can stand above or below the compound they belong to.

Columns and labels:
[1] = target: T1, OR2C1 (Homo sapiens, UniProt O95371); experiment: suppressive effect on the response of OR2C1 to trans-2-nonenal, luciferase reporter gene assay; conditions: mixed with trans-2-nonenal as analyte; FIGS. 9 and 10
T1 sequence (O95371 1-312): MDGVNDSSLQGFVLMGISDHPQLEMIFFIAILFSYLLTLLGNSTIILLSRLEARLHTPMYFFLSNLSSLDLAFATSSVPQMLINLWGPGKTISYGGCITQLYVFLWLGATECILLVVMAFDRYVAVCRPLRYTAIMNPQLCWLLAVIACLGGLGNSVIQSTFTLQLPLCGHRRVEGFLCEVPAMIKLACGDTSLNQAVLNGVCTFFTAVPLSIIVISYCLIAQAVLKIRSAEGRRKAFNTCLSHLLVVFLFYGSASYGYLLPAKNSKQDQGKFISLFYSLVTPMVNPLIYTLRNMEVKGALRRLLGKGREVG
Excerpt: Human olfactory receptor genes were obtained by PCR cloning with Human Genomic DNA: Female (Promega) on the basis of their sequence information registered in GenBank. Into pME18S vectors, the N-terminal 20 amino acid residues of bovine rhodopsin were integrated, and subsequently the resulting human olfactory receptor genes were integrated respectively downstream thereof to obtain human olfactory receptor gene expression vectors. […]
After removal of the culture solutions, an odorous substance serving as an analyte, which had been prepared at a given concentration with CD293 (gibco) medium (supplemented with 20 μM L-glutamine), was added in 50 μL volumes to stimulate the cells for 3 hours, followed by luciferase activity measurement in accordance with the usage of a Dual-Luciferase Reporter Assay System (Promega). The response intensity of each olfactory receptor polypeptide was expressed as a fold increase value, which was determined by dividing the luciferase activity generated upon stimulation with the odorous substance by the luciferase activity generated in a test system not containing the odorous substance.

[2] = target: T1, OR2C1; experiment: luciferase reporter gene assay, response of OR2C1 to odorous substance; format: cell-based
[3] = target: T2, OR5P3 (Homo sapiens, UniProt Q8WZ94); experiment: luciferase reporter gene assay, response of OR5P3 to odorous substance; format: cell-based
T2 sequence (Q8WZ94 1-311): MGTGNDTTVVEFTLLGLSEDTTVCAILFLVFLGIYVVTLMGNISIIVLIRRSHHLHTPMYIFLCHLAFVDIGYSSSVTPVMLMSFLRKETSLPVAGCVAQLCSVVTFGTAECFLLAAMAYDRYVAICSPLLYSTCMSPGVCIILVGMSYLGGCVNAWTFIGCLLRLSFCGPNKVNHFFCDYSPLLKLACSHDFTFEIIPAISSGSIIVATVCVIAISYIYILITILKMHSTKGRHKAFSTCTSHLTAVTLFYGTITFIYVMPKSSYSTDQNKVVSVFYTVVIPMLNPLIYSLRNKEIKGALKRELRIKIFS

[4] = target: T3, OR1D2 (Homo sapiens, UniProt P34982); experiment: luciferase reporter gene assay, response of OR1D2 to odorous substance; format: cell-based
T3 sequence (P34982 1-312): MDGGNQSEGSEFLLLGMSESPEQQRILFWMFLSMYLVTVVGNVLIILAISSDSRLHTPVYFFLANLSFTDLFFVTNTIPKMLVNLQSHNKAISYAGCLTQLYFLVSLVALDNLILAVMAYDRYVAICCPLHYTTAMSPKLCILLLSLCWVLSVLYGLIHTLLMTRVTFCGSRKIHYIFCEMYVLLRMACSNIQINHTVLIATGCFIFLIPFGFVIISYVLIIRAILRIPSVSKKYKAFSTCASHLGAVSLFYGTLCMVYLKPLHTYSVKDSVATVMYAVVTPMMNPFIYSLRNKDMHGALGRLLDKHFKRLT

[5] = target: T4, OR52N2 (Homo sapiens, UniProt Q8NGI0); experiment: luciferase reporter gene assay, response of OR52N2 to odorous substance; format: cell-based
T4 sequence (Q8NGI0 1-321): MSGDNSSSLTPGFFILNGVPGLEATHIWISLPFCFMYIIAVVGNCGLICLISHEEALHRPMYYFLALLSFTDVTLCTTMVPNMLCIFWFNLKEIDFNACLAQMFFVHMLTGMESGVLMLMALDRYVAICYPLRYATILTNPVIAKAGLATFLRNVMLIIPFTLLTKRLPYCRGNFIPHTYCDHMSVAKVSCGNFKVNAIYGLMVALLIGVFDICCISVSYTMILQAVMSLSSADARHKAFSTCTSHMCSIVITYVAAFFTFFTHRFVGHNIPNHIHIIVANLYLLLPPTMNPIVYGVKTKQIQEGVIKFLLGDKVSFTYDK

[6] = target: T5, OR4E2 (Homo sapiens, UniProt Q8NGC2, Q234R/V118M); experiment: luciferase reporter gene assay, response of OR4E2 to odorous substance; format: cell-based
T5 sequence (Q8NGC2 1-313 V118M/Q234R): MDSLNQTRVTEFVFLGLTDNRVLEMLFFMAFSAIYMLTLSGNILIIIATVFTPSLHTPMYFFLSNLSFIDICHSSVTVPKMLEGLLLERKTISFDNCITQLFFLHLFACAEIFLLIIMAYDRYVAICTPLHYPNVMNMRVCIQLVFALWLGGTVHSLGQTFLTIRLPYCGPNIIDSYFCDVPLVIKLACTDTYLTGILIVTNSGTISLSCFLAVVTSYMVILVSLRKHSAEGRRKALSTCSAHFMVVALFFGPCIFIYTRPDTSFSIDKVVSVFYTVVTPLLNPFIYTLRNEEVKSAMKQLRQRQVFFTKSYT

[7] = target: T6, OR9I1 (Homo sapiens, UniProt Q8NGQ6); experiment: luciferase reporter gene assay, response of OR9I1 to odorous substance; format: cell-based; conditions: trans-2-octenal 50 μM, HEK293T cells expressing OR9I1
T6 sequence (Q8NGQ6 1-314): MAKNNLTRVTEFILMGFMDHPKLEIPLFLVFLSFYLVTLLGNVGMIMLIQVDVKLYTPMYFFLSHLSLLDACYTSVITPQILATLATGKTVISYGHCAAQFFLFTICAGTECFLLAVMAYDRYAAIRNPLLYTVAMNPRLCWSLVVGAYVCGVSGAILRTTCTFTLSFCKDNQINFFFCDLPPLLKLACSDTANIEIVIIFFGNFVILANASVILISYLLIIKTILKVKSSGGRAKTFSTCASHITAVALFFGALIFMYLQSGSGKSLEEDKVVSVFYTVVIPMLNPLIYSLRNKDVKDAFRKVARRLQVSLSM
Method: (§1) In the same manner as shown in Example 1, the cells engineered to express 402 types of human olfactory receptors were measured for receptor responses to trans-2-octenal (50 μM) by the luciferase reporter gene assay.

[8] = target: T7, OR51A7 (Homo sapiens, UniProt Q8NH64); experiment: luciferase reporter gene assay, response of OR51A7 to odorous substance; format: cell-based; conditions: trans-2-octenal 50 μM, HEK293T cells expressing OR51A7
T7 sequence (Q8NH64 1-312): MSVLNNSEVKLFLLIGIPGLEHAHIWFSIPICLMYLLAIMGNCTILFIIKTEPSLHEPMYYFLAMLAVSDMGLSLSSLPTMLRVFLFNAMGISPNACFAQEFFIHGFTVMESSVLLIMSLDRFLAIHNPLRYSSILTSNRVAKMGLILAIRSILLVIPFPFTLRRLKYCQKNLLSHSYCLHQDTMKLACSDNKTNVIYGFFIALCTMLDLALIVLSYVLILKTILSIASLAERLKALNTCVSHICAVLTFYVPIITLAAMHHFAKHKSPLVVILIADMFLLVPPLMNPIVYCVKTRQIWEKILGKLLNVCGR
Method: as §1

[9] = target: T8, OR7G1 (Homo sapiens, UniProt Q8NGA0); experiment: luciferase reporter gene assay, response of OR7G1 to odorous substance; format: cell-based; conditions: trans-2-octenal 50 μM, HEK293T cells expressing OR7G1
T8 sequence (Q8NGA0 1-311): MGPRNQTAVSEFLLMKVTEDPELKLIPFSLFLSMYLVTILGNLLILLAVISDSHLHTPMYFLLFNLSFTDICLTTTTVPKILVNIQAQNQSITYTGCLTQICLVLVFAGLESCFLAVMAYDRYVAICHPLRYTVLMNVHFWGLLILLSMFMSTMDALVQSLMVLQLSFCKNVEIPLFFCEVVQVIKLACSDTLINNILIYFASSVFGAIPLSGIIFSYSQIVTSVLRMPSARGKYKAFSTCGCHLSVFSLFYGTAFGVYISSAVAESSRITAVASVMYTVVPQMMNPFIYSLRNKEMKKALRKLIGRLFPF
Method: as §1

SMILES: CC/C=C\CCO [cis-3-Hexenol]
suppressive effect on the response of OR2C1 to trans-2-nonenal (ratio of fold increase value, test without material set to 100) [1]: reducing the response of OR2C1 to trans-2-nonenal in a concentration-dependent manner

SMILES: CC1=CC(C)C(C=O)CC1 (stereo not drawn) [dimethyltetrahydrobenzaldehyde]
suppressive effect on the response of OR2C1 to trans-2-nonenal (ratio of fold increase value, test without material set to 100) [1]: reducing the response of OR2C1 to trans-2-nonenal in a concentration-dependent manner

fold increase value (receptor response) ([2]; trans-2-nonenal 60 μM, HEK293T cells expressing OR2C1, 3 hours): ≥ 2
fold increase value (receptor response) ([3]; trans-2-nonenal 60 μM, HEK293T cells expressing OR5P3, 3 hours): ≥ 2
fold increase value (receptor response) ([4]; trans-2-nonenal 60 μM, HEK293T cells expressing OR1D2, 3 hours): ≥ 2
fold increase value (receptor response) ([5]; trans-2-nonenal 60 μM, HEK293T cells expressing OR52N2, 3 hours): ≥ 2
fold increase value (receptor response) ([6]; trans-2-nonenal 60 μM, HEK293T cells expressing OR4E2, 3 hours): ≥ 2
SMILES: CCCCCC/C=C/C=O [trans-2-nonenal]
receptor response to different concentrations ([2]; different concentrations of trans-2-nonenal, FIG. 3, no response in mock test): respond to trans-2-nonenal in a concentration-dependent manner
receptor response to different concentrations ([3]; different concentrations of trans-2-nonenal, FIG. 6, no response in mock test): respond to trans-2-nonenal in a concentration-dependent manner
receptor response to different concentrations ([4]; different concentrations of trans-2-nonenal, FIG. 2, no response in mock test): respond to trans-2-nonenal in a concentration-dependent manner
receptor response to different concentrations ([5]; different concentrations of trans-2-nonenal, FIG. 7, no response in mock test): respond to trans-2-nonenal in a concentration-dependent manner
receptor response to different concentrations ([6]; different concentrations of trans-2-nonenal, FIG. 5, no response in mock test): respond to trans-2-nonenal in a concentration-dependent manner

fold increase value (receptor response) ([2]; trans-2-octenal 50 μM, HEK293T cells expressing OR2C1): ≥ 2
fold increase value (receptor response) ([3]; trans-2-octenal 50 μM, HEK293T cells expressing OR5P3): ≥ 2
fold increase value (receptor response) [7]: ≥ 2
fold increase value (receptor response) [8]: ≥ 2
fold increase value (receptor response) [9]: ≥ 2
fold increase value (receptor response) ([6]; trans-2-octenal 50 μM, HEK293T cells expressing OR4E2): ≥ 2
SMILES: CCCCC/C=C/C=O [trans-2-octenal]
